Results as given in ChEMBL document CHEMBL5252658, “Conversion of a Cardiac Muscle Modulator from an Inhibitor to an Activator” (ACS Med Chem Lett, 2023).
pKd: −log10 of the molar value. Calls of active or inactive are those of the source. The rule behind the calls is not given here.

Experiments:
[1] = Binding affinity to CTNI-CTNC N-domain chimera (unknown origin) assessed as dissociation constant; design: species or system Homo sapiens
[2] = species: Bos taurus; experiment: Modulation of bovine cardiac myofibrils ATPase activity at 50 uM relative to control; conditions: filed as modulator
[3] = species: Rattus norvegicus; experiment: Cardiovascular activity in rat ventricular trabeculae assessed as increase in calcium sensitivity of force development at 50 uM; assay type: functional

| Structure (SMILES) | pKd [1] | Activity [2] [%] | Activity [3] |
| --- | --- | --- | --- |
| NCCCCCCNS(=O)(=O)c1cccc2c(Cl)cccc12 | 3.33 |  |  |
| NCCCCCCCCNS(=O)(=O)c1cccc(-c2ccc(F)cc2F)c1 | 4.22 | 30 |  |
| NCCCCCCCNS(=O)(=O)c1cccc(-c2ccc(F)cc2F)c1 | 3.92 | 30 |  |
| NCCCCCCNS(=O)(=O)c1cccc(-c2ccc(F)cc2F)c1 | 3.70 | 30 | Active |
